Measured values reported in PubChem BioAssay (NCI).
Values joined by “and” are separate entries in the source; they are usually repeats but may differ in a detail not shown here. Equal values may be shown once.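 Results reflect a 48-hour exposure of cells in 96-well plates to compound at five concentrations. Here, GI50 denotes the concentration required for 50% inhibition of growth. At the TGI there is no net growth.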

Experiments:
Assay in all cases: NCI anticancer screen, dose series, 48 h
SK-MEL-28 melanoma = tested on: SK-MEL-28 melanoma
CCRF-CEM leukemia = tested on: CCRF-CEM leukemia
MALME-3M melanoma = tested on: MALME-3M melanoma
NCI-H522 lung = tested on: NCI-H522 lung
SF-268 CNS = tested on: SF-268 CNS
KM12 colon = tested on: KM12 colon
OVCAR-3 ovarian = tested on: OVCAR-3 ovarian
T-47D breast = tested on: T-47D breast

| Compound | TGI (SK-MEL-28 melanoma) | TGI (CCRF-CEM leukemia) [µM] | TGI (MALME-3M melanoma) | TGI (NCI-H522 lung) | TGI (SF-268 CNS) | TGI (KM12 colon) | TGI (OVCAR-3 ovarian) | TGI (T-47D breast) | GI50 (SK-MEL-28 melanoma) | GI50 (CCRF-CEM leukemia) [µM] | GI50 (MALME-3M melanoma) | GI50 (NCI-H522 lung) | GI50 (SF-268 CNS) | GI50 (KM12 colon) | GI50 (OVCAR-3 ovarian) | GI50 (T-47D breast) |
| --- | --- | --- | --- | --- | --- | --- | --- | --- | --- | --- | --- | --- | --- | --- | --- | --- |
| O=C(O)Cn1ccnc1[N+](=O)[O-] | > 100 µM | > 100 | > 100 µM | > 100 µM | > 100 µM | > 100 µM | > 100 µM | > 100 µM | – | – | – | – | – | – | – | – |
| COc1ccc2[nH]c(-c3ccccc3)cc2c1 | > 100 µM | > 100 | > 100 µM | > 100 µM | > 100 µM | > 100 µM | > 100 µM | > 100 µM | > 100 µM | 68.5 | > 100 µM | 73.9 µM | > 100 µM | 73.8 µM | > 100 µM | 19.3 µM |
| CN(C)C(=O)SC1=C(c2c(Cl)cccc2Cl)C(=O)c2ccccc21 | 8.89 µM | 9.27 | 3.74 µM | 4.05 µM | 22.7 µM | 28.6 µM | 3.8 µM | – | 3.16 µM | 2.67 | 1.66 µM | 1.74 µM | 8.9 µM | 14.8 µM | 1.96 µM | – |
| CN(C)CCCC1(c2ccc(F)cc2)OCc2cc(-c3cncc4ccccc34)ccc21 (stereo not given) | 3.24 µM | 11.6 | 3.09 µM | 4.08 µM | 13.9 µM | 12.1 µM | 9.88 µM | 7.28 µM | 1.75 µM | 3.45 | 1.55 µM | 1.88 µM | 3.15 µM | 3.41 µM | 2.94 µM | 2.43 µM |
| CN(C)CCCN1c2ccccc2Sc2ccc(Cl)cc21 | 4.69 µM and 14.4 µM | 24.3 | 31.5 µM and 15.8 µM | 7.16 µM and 8.9 µM | 21.4 µM and 18.5 µM | 14.8 µM and 17.6 µM | 12.6 µM and 18.8 µM | 20 µM and 23.4 µM | 2.03 µM and 3.65 µM | 7.38 | 14.9 µM and 3.04 µM | 2.74 µM and 2.79 µM | 8.89 µM and 5.25 µM | 4.23 µM and 5.55 µM | 3.83 µM and 6.36 µM | 5.92 µM and 8.6 µM |
| CCc1cccc(CC)c1/C=C/c1cncc(C(=O)NC)c1 | > 25 µM | > 25 | > 25 µM | > 23.9 µM | > 25 µM | > 25 µM | > 20.2 µM | > 25 µM | 13.4 µM | 0.765 | 10.9 µM | 8.82 µM | 15.6 µM | 9.02 µM | 8.14 µM | 11.9 µM |
| COc1cc(O)c(C(C)=O)c(O)c1 | > 100 µM | – | > 100 µM | > 100 µM | > 100 µM | > 100 µM | > 100 µM | > 100 µM | – | – | – | – | – | – | – | – |
| CCCn1cnc2c(SCc3ccccc3)nc(N)nc21 | > 100 µM | > 100 | > 100 µM | > 100 µM | > 100 µM | > 100 µM | > 100 µM | > 100 µM | > 100 µM | 72.9 | > 100 µM | > 100 µM | > 100 µM | > 100 µM | > 100 µM | 56.9 µM |
| O=C(Nc1ccc(Cl)cc1)Nc1ccccc1CNc1nc(Nc2ccc(OCCN3CCCC3)cc2)ncc1Cl | 1.58 µM | 3.43 | 1.59 µM | 2.94 µM | 4.04 µM | 2.2 µM | 1.71 µM | 18 µM | 0.855 µM | 1.32 | 0.828 µM | 1.18 µM | 1.29 µM | 1.04 µM | 0.935 µM | 6.47 µM |
| C/C(=N\n1c(N)c(C#N)c(-c2ccc(Cl)cc2)c(C#N)c1=O)c1ccncc1 | > 100 µM | > 100 | > 100 µM | – | 61.4 µM | – | 21.5 µM | 85.3 µM | 56.8 µM | > 100 | 7.54 µM | – | 9.83 µM | – | 3.7 µM | 7.81 µM |
| Nc1ccn([C@@H]2C(F)=C(CO)[C@@H](O)[C@H]2O)c(=O)n1 | > 100 µM | – | > 100 µM | > 100 µM | > 100 µM | > 100 µM | > 100 µM | > 100 µM | 6.91 µM | – | 9.57 µM | 0.45 µM | 1.53 µM | 0.65 µM | 4.17 µM | 5.02 µM |
| Cc1cc(=O)oc2cc(OCCn3c(C)nn(-c4ccc(Cl)cc4)c3=O)ccc12 | > 100 µM | – | > 100 µM | 33.2 µM | > 100 µM | > 100 µM | 15.2 µM | > 100 µM | 3.13 µM | – | 3.85 µM | 3.85 µM | 13.6 µM | 1.66 µM | 3.25 µM | 7.55 µM |
| NC(N)=N/N=C/c1c(-c2ccc(Cl)c([N+](=O)[O-])c2)nc2n1CCS2 | 35.5 µM | 9.93 | – | > 100 µM | 40 µM | 25.7 µM | 3.91 µM | 50.2 µM | 16.6 µM | 2.6 | – | 35.6 µM | 16.1 µM | 12.4 µM | 1.93 µM | 21.6 µM |
| COC(=O)C(C(=O)C(=O)NC1Nc2ccc(C)cc2S1)c1nc2ccc(Cl)cc2[nH]c1=O (stereo not given) | > 100 µM | – | > 100 µM | > 100 µM | > 100 µM | > 100 µM | > 100 µM | > 100 µM | – | – | – | – | – | – | – | – |
| COc1cc2cccc(N=Cc3c(Br)ccc(OC)c3OC(C)C)c2cc1OC | > 100 µM | 90.4 | > 100 µM | > 100 µM | > 100 µM | > 100 µM | > 100 µM | – | – | – | – | – | – | – | – | – |
| c1cnc2[nH]cc(-c3csc(-c4cn(CCCN5CCCCC5)c5ccccc45)n3)c2c1 | – | – | – | – | 3.19 µM | 3.13 µM | 2.96 µM | – | – | – | – | – | 1.56 µM | 1.61 µM | 1.54 µM | – |
| CCOCNc1ccc(N2C(=O)/C(=C/c3ccc(N(CC)CC)cc3)N=C2c2ccccc2)cc1 | > 100 µM | > 100 | > 100 µM | – | > 100 µM | > 100 µM | > 100 µM | > 100 µM | > 100 µM | 3.55 | 24.8 µM | – | 7.73 µM | 5.44 µM | 28.3 µM | 84 µM |
| COc1ccccc1/C=C\C(=O)c1ccccc1 | – | > 100 | 26.2 µM | 7 µM | 27 µM | 6.32 µM | 19.3 µM | 20 µM | – | 3.28 | 12.9 µM | 2.39 µM | 13.1 µM | 2.79 µM | 7.43 µM | 5.44 µM |
| CC(=O)[CH-]C(=O)c1ccccc1.CC(=O)[CH-]C(=O)c1ccccc1.[CH2-]CCC.[CH2-]CCC.[Sn+4] | – | 0.745 | 1.91 µM | 0.327 µM | 3.39 µM | 2.76 µM | 2.62 µM | – | – | 0.261 | 0.63 µM | 0.157 µM | 1.19 µM | 1.41 µM | 1.3 µM | – |
| Cn1cc(CO)c2ccccc21 | > 100 µM | > 100 | – | > 100 µM | > 100 µM | 88.5 µM | > 100 µM | > 100 µM | 85.9 µM | > 100 | – | 23.4 µM | 60.6 µM | 15.9 µM | 29.5 µM | 62.1 µM |
| COc1ccc(NC(=O)c2sc3nc4c(cc3c2N)CCCC4)cc1 | > 100 µM | > 100 | – | 0.772 µM | > 100 µM | 82.9 µM | 3.19 µM | 96.9 µM | 15.2 µM | 0.322 | – | 0.234 µM | 0.899 µM | 0.612 µM | 0.336 µM | 0.547 µM |
| COc1cc2nnn3c4ncccc4c(N=O)c3c2cc1OC | > 100 µM | – | 17.2 µM | 28 µM | 19.3 µM | > 100 µM | > 100 µM | > 29.9 µM | 9.1 µM | – | 3.04 µM | 3.04 µM | 0.564 µM | 2.46 µM | 0.722 µM | 0.317 µM |
| CCC(=O)c1cc([N+](=O)[O-])c(Br)s1 | 15.2 µM | – | 3.87 µM | 2.2 µM | 14.6 µM | 24.2 µM | 3.32 µM | – | 4.17 µM | – | 1.85 µM | 0.904 µM | 4.39 µM | 11.6 µM | 1.91 µM | – |
| COC(=O)[C@H](Cc1ccccc1)NC(=O)c1csc([C@@H](C[C@H](C(C)C)N(C)C(=O)[C@@H](NC(=O)[C@H]2CCCN2C)C2CC2)OC(C)=O)n1 | > 33.3 µM | > 33.3 | > 33.3 µM | > 33.3 µM | > 33.3 µM | > 33.3 µM | – | > 33.3 µM | 2.48 µM | 0.166 | 5.49 µM | 0.0783 µM | 1.05 µM | 0.45 µM | – | > 7.36 µM |
| Fc1c[c-]c(-c2ccccn2)c(F)c1.[CH3-].[Pt+2].c1ccc(P(C[PH+](c2ccccc2)c2ccccc2)c2ccccc2)cc1 | 1.52 µM | – | 0.919 µM | 3.16 µM | 6.88 µM | 1.25 µM | 1.2 µM | 3.27 µM | 0.512 µM | – | 0.342 µM | 0.96 µM | 0.86 µM | 0.421 µM | 0.411 µM | 0.474 µM |
| CC12OC(C(=O)C13CCC3)C1C(=O)c3ccccc3C(=O)C12 (stereo not given) | > 100 µM | > 100 | > 100 µM | > 100 µM | > 100 µM | > 100 µM | – | > 100 µM | > 100 µM | 36.9 | 33 µM | > 100 µM | > 100 µM | 32.4 µM | – | 44 µM |
